Data reported in article PMC7957578, “N-(1,3,4-Oxadiazol-2-yl)Benzamides as Antibacterial Agents against Neisseria gonorrhoeae” (International Journal of Molecular Sciences, 2021).
Values after ≈ are worked out from the molar mass of the structure shown. Where two headings read alike, the source gives them in different places.

Key:
Details in all cases: Neisseria gonorrhoeae
[1] = system: N. gonorrhoeae strain 181; assay: MIC by broth microdilution against N. gonorrhoeae strain 181; format: cell-based, Neisseria gonorrhoeae
Method: (§1) Briefly, bacteria were grown overnight on chocolate agar II at 37° C in the presence of 5% CO2. Afterwards, a bacterial suspension equivalent to 1.0 McFarland standard was prepared and diluted in brucella broth supplemented with yeast extract, neopeptone, hematin, pyridoxal, and NAD. Test agents were added in the first row of the 96-well plates and serially diluted along the plates. Plates were then incubated at 37° C in the presence of 5% CO2 for 24 h. […] Plates were then incubated at 37 ° C in the presence of 5% CO2 for 24 h. The MBC was categorized as the lowest concentration that reduced bacterial growth by 99.9% [45, 46, 47].

N. gonorrhoeae 165 = assay: MIC/MBC against N. gonorrhoeae clinical isolate 165; format: cell-based
Method: as §1

N. gonorrhoeae 166 = assay: MIC/MBC against N. gonorrhoeae clinical isolate 166; format: cell-based
Method: as §1

N. gonorrhoeae 194 = assay: MIC/MBC against N. gonorrhoeae clinical isolate 194; format: cell-based
Method: as §1

N. gonorrhoeae 197 = assay: MIC/MBC against N. gonorrhoeae clinical isolate 197; format: cell-based
Method: as §1

N. gonorrhoeae 200 = assay: MIC/MBC against N. gonorrhoeae clinical isolate 200; format: cell-based
Method: as §1

N. gonorrhoeae WHO L = assay: MIC/MBC against N. gonorrhoeae WHO L reference strain; format: cell-based
Method: as §1

[2] = N. gonorrhoeae strain 181, read-out: MIC

CC[C@H]1OC(=O)[C@H](C)[C@@H](O[C@H]2C[C@@](C)(OC)[C@@H](O)[C@H](C)O2)[C@H](C)[C@@H](O[C@@H]2O[C@H](C)C[C@H](N(C)C)[C@H]2O)[C@](C)(O)C[C@@H](C)CN(C)[C@H](C)[C@@H](O)[C@]1(C)O [Azithromycin, azithromycin, reference compound]
MIC [1]; 181: 256 µg/mL (≈ 342 µM)
MBC (N. gonorrhoeae 165): 4 µg/mL (≈ 5.34 µM)
MIC (N. gonorrhoeae 165): 1 µg/mL (≈ 1.34 µM)
MBC (N. gonorrhoeae 166): 1 µg/mL (≈ 1.34 µM)
MIC (N. gonorrhoeae 166): 0.5 µg/mL (≈ 0.668 µM)
MBC (N. gonorrhoeae 194): 0.5 µg/mL (≈ 0.668 µM)
MIC (N. gonorrhoeae 194): 0.25 µg/mL (≈ 0.334 µM)
MBC (N. gonorrhoeae 197): 2 µg/mL (≈ 2.67 µM)
MIC (N. gonorrhoeae 197): 0.5 µg/mL (≈ 0.668 µM)
MBC (N. gonorrhoeae 200): 0.5 µg/mL (≈ 0.668 µM)
MIC (N. gonorrhoeae 200): 0.5 µg/mL (≈ 0.668 µM)
MBC (N. gonorrhoeae WHO L): 1 µg/mL (≈ 1.34 µM)
MIC (N. gonorrhoeae WHO L): 0.5 µg/mL (≈ 0.668 µM)

O=C(Nc1nnc(-c2cccs2)o1)c1ccc(S(=O)(=O)C(F)(F)F)cc1 [Compound 6]
MIC [1, 2]: 0.5 µg/mL (≈ 1.24 µM)

O=C(Nc1nnc(-c2cccs2)o1)c1ccc(SC(F)(F)F)cc1 [Compound 12]
MIC [1, 2]: 0.06 µg/mL (≈ 0.162 µM)

O=C(Nc1nnc(-c2cccs2)o1)c1ccc(S(F)(F)(F)(F)F)cc1 [Compound 13]
MIC [1, 2]: 0.06 µg/mL (≈ 0.151 µM)
